According to patent US12091409B2, “Ether linked triazoles as NRF2 activators” (ASTEX THERAPEUTICS LIMITED, priority 2016, dated 2024):

test system: NQO1 specific enzyme activity in BEAS-2B cells (marker for NRF2 activation); assay: BEAS-2B NQO1 MTT Assay; format: cell-based; settings: Homo sapiens, BEAS-2B, 48 h, NQO1 specific activity induction, 48 hours with compound
Source text: NAD(P)H:quinone oxidoreductase 1 (NQO1), also called DT diaphorase, is a homodimeric FAD-containing enzyme that catalyzes obligatory NAD(P)H-dependent two-electron reductions of quinones and protects cells against the toxic and neoplastic effects of free radicals and reactive oxygen species arising from one-electron reductions. The transcription of NQO1 is finely regulated by NRF2, and thus NQO1 activity is a good marker for NRF2 activation. On day one, frozen BEAS-2B cells (ATCC) were thawed in a water bath, counted, and re-suspended at a concentration of 250,000 cells/mL. Fifty microliters of cells were plated in 384 well black clear-bottomed plates. Plates were incubated at 37° C., 5% CO2 overnight. On day two, plates were centrifuged and 50 nL of compound or controls were added to the cells. Plates were then incubated at 37° C., 5% CO2 for 48 hours. On day four, medium was aspirated from the plate and crude cell lysates were made by adding 13 uL of 1× Cell Signaling Technologies lysis buffer with 1 Complete, Mini, EDTA-free Protease Inhibitor Tablet (Roche) for each 10 mL of lysis buffer. After lysis plates were incubated for 20 minutes at room temperature. Two microliters of lysate were removed for use in Cell Titer Glo assay (Promega) and MTT cocktail was prepared (Prochaska et. al. 1998) for measurement of NQO1 activity. Fifty microliters of MTT cocktail was added to each well, plate was centrifuged, and analyzed on an Envision plate reader (Perkin Elmer) using Absorbance 570 nm label for 30 minutes. Product formation was measured kinetically and the pEC50 of NQO1 specific activity induction was calculated by plotting the change in absorbance (Delta OD/min) versus the log of compound concentration followed by 3-parameter fitting.
pEC50 is the negative log of the EC50.
EC50s<1 nM (+++++), EC50s 1 nM-10 nM (++++), EC50s 10 nM-100 nM (+++), EC50s 100 nM-1 uM (++), EC50s 1 uM-10 uM (+); EC50s>10 uM (−), or were not determined (ND).

Structure (SMILES) | EC50 [nM]
CC[C@@H]1CN(Cc2cc(C(OCc3cn(CC)nn3)C(C)(C)C(=O)O)ccc2C)S(=O)(=O)c2ccccc2O1 (stereo partly drawn) [Example 10, 3-(3-(((R)-4-ethyl-1,1-dioxido-3,4-dihydro-2H-benzo[b][1,4,5]oxathiazepin-2-yl)methyl)-4-methylphenyl)-3-((1-ethyl-1H-1,2,3-triazol-4-yl)methoxy)-2,2-dimethylpropanoic acid] | < 1
CCn1cc(COC(c2ccc(C)c(CN3C[C@@H](C)Oc4ccccc4S3(=O)=O)c2)C(C)(C)C(=O)O)nn1 (stereo partly drawn) [Example 11, 3-((1-Ethyl-1H-1,2,3-triazol-4-yl)methoxy)-2,2-dimethyl-3-(4-methyl-3-(((R)-4-methyl-1,1-dioxido-3,4-dihydro-2H-benzo[b][1,4,5]oxathiazepin-2-yl)methyl)phenyl)propanoic acid] | 1 to 10
CCn1cc(COC(c2ccc(C)c(CN3CC(C)(C)Oc4ccccc4S3(=O)=O)c2)C(C)(C)C(=O)O)nn1 (stereo not drawn) [Example 12, 3-(3-((4,4-dimethyl-1,1-dioxido-3,4-dihydro-2H-benzo[b][1,4,5]oxathiazepin-2-yl)methyl)-4-methylphenyl)-3-((1-ethyl-1H-1,2,3-triazol-4-yl)methoxy)-2,2-dimethylpropanoic acid] | 1 to 10
Cc1ccc(C(OCc2cn(C3CCCCC3)nn2)C(C)(C)C(=O)O)cc1CN1C[C@@H](C)Oc2ccccc2S1(=O)=O (stereo partly drawn) [Example 17, 3-((1-Cyclohexyl-1H-1,2,3-triazol-4-yl)methoxy)-2,2-dimethyl-3-(4-methyl-3-(((R)-4-methyl-1,1-dioxido-3,4-dihydro-2H-benzo[b][1,4,5]oxathiazepin-2-yl)methyl)phenyl)propanoic acid] | 1 to 10
Cc1ccc(C(OCc2cn(CC3CCCN(C(=O)OC(C)(C)C)C3)nn2)C(C)(C)C(=O)O)cc1CN1C[C@@H](C)Oc2ccccc2S1(=O)=O (stereo partly drawn) [Example 18, 3-((1-((1-(Tert-butoxycarbonyl)piperidin-3-yl)methyl)-1H-1,2,3-triazol-4-yl)methoxy)-2,2-dimethyl-3-(4-methyl-3-(((R)-4-methyl-1,1-dioxido-3,4-dihydro-2H-benzo[b][1,4,5]oxathiazepin-2-yl)methyl)phenyl)propanoic acid] | 1 to 10
Cc1ccc(C(OCc2cn(Cc3ccc(CN=[N+]=[N-])cc3)nn2)C(C)(C)C(=O)O)cc1CN1C[C@@H](C)Oc2ccccc2S1(=O)=O (stereo partly drawn) [Example 19, 3-((1-(4-(Azidomethyl)benzyl)-1H-1,2,3-triazol-4-yl)methoxy)-2,2-dimethyl-3-(4-methyl-3-(((R)-4-methyl-1,1-dioxido-3,4-dihydro-2H-benzo[b][1,4,5]oxathiazepin-2-yl)methyl)phenyl)propanoic acid] | 1 to 10
Cc1ccc(C(OCc2cn(CC3CCN(C(=O)OC(C)(C)C)CC3)nn2)C(C)(C)C(=O)O)cc1CN1C[C@@H](C)Oc2ccccc2S1(=O)=O (stereo partly drawn) [Example 20, 3-((1-((1-(Tert-butoxycarbonyl)piperidin-4-yl)methyl)-1H-1,2,3-triazol-4-yl)methoxy)-2,2-dimethyl-3-(4-methyl-3-(((R)-4-methyl-1,1-dioxido-3,4-dihydro-2H-benzo[b][1,4,5]oxathiazepin-2-yl)methyl)phenyl)propanoic acid] | 1 to 10
CC[C@@H]1CN(Cc2cc(C(OCc3cn(Cc4cccc(C(=O)O)c4)nn3)C(C)(C)C(=O)O)ccc2C)S(=O)(=O)c2ccccc2O1 (stereo partly drawn) [Example 21, 3-((4-((2-Carboxy-1-(3-(((R)-4-ethyl-1,1-dioxido-3,4-dihydro-2H-benzo[b][1,4,5]oxathiazepin-2-yl)methyl)-4-methylphenyl)-2-methylpropoxy)methyl)-1H-1,2,3-triazol-1-yl)methyl)benzoic acid] | 100 to 1000
CC[C@@H]1CN(Cc2cc(C(OCc3cn(Cc4cccc(-c5ccc(C(=O)O)cc5)c4)nn3)C(C)(C)C(=O)O)ccc2C)S(=O)(=O)c2ccccc2O1 (stereo partly drawn) [Example 22, 3′-((4-((2-Carboxy-1-(3-(((R)-4-ethyl-1,1-dioxido-3,4-dihydro-2H-benzo[b][1,4,5]oxathiazepin-2-yl)methyl)-4-methylphenyl)-2-methylpropoxy)methyl)-1H-1,2,3-triazol-1-yl)methyl)-[1,1′-biphenyl]-4-carboxylic acid] | 1 to 10
CC[C@@H]1CN(Cc2cc(C(OCc3cn(Cc4cccc(-c5cccc(C(=O)O)c5)c4)nn3)C(C)(C)C(=O)O)ccc2C)S(=O)(=O)c2ccccc2O1 (stereo partly drawn) [Example 23, 3′-((4-((2-Carboxy-1-(3-(((R)-4-ethyl-1,1-dioxido-3,4-dihydro-2H-benzo[b][1,4,5]oxathiazepin-2-yl)methyl)-4-methylphenyl)-2-methylpropoxy)methyl)-1H-1,2,3-triazol-1-yl)methyl)-[1,1′-biphenyl]-3-carboxylic acid] | 10 to 100
CC[C@@H]1CN(Cc2cc(C(OCc3cn(Cc4cccc(-c5ccc(C(=O)O)c(F)c5)c4)nn3)C(C)(C)C(=O)O)ccc2C)S(=O)(=O)c2ccccc2O1 (stereo partly drawn) [Example 24, 3′-((4-((2-Carboxy-1-(3-(((R)-4-ethyl-1,1-dioxido-3,4-dihydro-2H-benzo[b][1,4,5]oxathiazepin-2-yl)methyl)-4-methylphenyl)-2-methylpropoxy)methyl)-1H-1,2,3-triazol-1-yl)methyl)-3-fluoro-[1,1′-biphenyl]-4-carboxylic acid] | 10 to 100
Cc1ccc(C(OCc2cn(Cc3cccc(-c4ccc(C(=O)O)cc4)c3)nn2)C(C)(C)C(=O)O)cc1CN1C[C@@H](C)Oc2ccccc2S1(=O)=O (stereo partly drawn) [Example 25, 3′-((4-((2-Carboxy-2-methyl-1-(4-methyl-3-(((R)-4-methyl-1,1-dioxido-3,4-dihydro-2H-benzo[b][1,4,5]oxathiazepin-2-yl)methyl)phenyl)propoxy)methyl)-1H-1,2,3-triazol-1-yl)methyl)-[1,1′-biphenyl]-4-carboxylic acid] | 10 to 100
Cc1ccc(C(OCc2cn(Cc3cccc(-c4cccc(C(=O)O)c4)c3)nn2)C(C)(C)C(=O)O)cc1CN1C[C@@H](C)Oc2ccccc2S1(=O)=O (stereo partly drawn) [Example 26, 3′-((4-((2-Carboxy-2-methyl-1-(4-methyl-3-(((R)-4-methyl-1,1-dioxido-3,4-dihydro-2H-benzo[b][1,4,5]oxathiazepin-2-yl)methyl)phenyl)propoxy)methyl)-1H-1,2,3-triazol-1-yl)methyl)-[1,1′-biphenyl]-3-carboxylic acid] | 10 to 100
CC[C@@H]1CN(Cc2cc(C(OCc3cn(Cc4cc(C)cc(Cn5cc(CO)nn5)c4)nn3)C(C)(C)C(=O)O)ccc2C)S(=O)(=O)c2ccccc2O1 (stereo partly drawn) [Example 27, 3-(3-(((R)-4-ethyl-1,1-dioxido-3,4-dihydro-2H-benzo[b][1,4,5]oxathiazepin-2-yl)methyl)-4-methylphenyl)-3-((1-(3-((4-(hydroxymethyl)-1H-1,2,3-triazol-1-yl)methyl)-5-methylbenzyl)-1H-1,2,3-triazol-4-yl)methoxy)-2,2-dimethylpropanoic acid] | 1 to 10
CC[C@@H]1CN(Cc2cc(C(OCc3cn(Cc4cccc(Cn5cc(CO)nn5)c4)nn3)C(C)(C)C(=O)O)ccc2C)S(=O)(=O)c2ccccc2O1 (stereo partly drawn) [Example 28, 3-(3-(((R)-4-ethyl-1,1-dioxido-3,4-dihydro-2H-benzo[b][1,4,5]oxathiazepin-2-yl)methyl)-4-methylphenyl)-3-((1-(3-((4-(hydroxymethyl)-1H-1,2,3-triazol-1-yl)methyl)benzyl)-1H-1,2,3-triazol-4-yl)methoxy)-2,2-dimethyl-propanoic acid] | 10 to 100
Cc1cc(Cn2cc(CO)nn2)cc(Cn2cc(COC(c3ccc(C)c(CN4C[C@@H](C)Oc5ccccc5S4(=O)=O)c3)C(C)(C)C(=O)O)nn2)c1 (stereo partly drawn) [Example 29, 3-((1-(3-((4-(Hydroxy-methyl)-1H-1,2,3-triazol-1-yl)methyl)-5-methylbenzyl)-1H-1,2,3-triazol-4-yl)methoxy)-2,2-dimethyl-3-(4-methyl-3-(((R)-4-methyl-1,1-dioxido-3,4-dihydro-2H-benzo[b][1,4,5]oxathiazepin-2-yl)methyl)phenyl)propanoic acid] | 10 to 100
Cc1ccc(C(OCc2cn(CC3CCN(C(=O)C4CCCCC4)CC3)nn2)C(C)(C)C(=O)O)cc1CN1C[C@@H](C)Oc2ccccc2S1(=O)=O (stereo partly drawn) [Example 30, 3-((1-((1-(Cyclohexanecarbonyl)piperidin-4-yl)methyl)-1H-1,2,3-triazol-4-yl)methoxy)-2,2-dimethyl-3-(4-methyl-3-(((R)-4-methyl-1,1-dioxido-3,4-dihydro-2H-benzo[b][1,4,5]oxathiazepin-2-yl)methyl)phenyl)propanoic acid] | 1 to 10
Cc1ccc(C(OCc2cn(CC3CCN(C(=O)c4ccccc4)CC3)nn2)C(C)(C)C(=O)O)cc1CN1C[C@@H](C)Oc2ccccc2S1(=O)=O (stereo partly drawn) [Example 31, 3-((1-((1-Benzoylpiperidin-4-yl)methyl)-1H-1,2,3-triazol-4-yl)methoxy)-2,2-dimethyl-3-(4-methyl-3-(((R)-4-methyl-1,1-dioxido-3,4-dihydro-2H-benzo[b][1,4,5]oxathiazepin-2-yl)methyl)phenyl)propanoic acid] | 10 to 100
